Measurements reported in article PMC12615753, “Glutathione as a taste modulator: molecular mechanisms of interaction with umami and sweet taste receptors” (Food Chemistry: Molecular Sciences, 2025).

Target: T1, hTAS1R1 D147A/rTAS1R3 (UniProt Q7RTX1+Q923K1, D147A)
T1 construct: UniProtKB number Q7RTX1–1); The cDNA coding region of rTAS1R3 was synthesized with optimized-codon usage for human expression; expressed in transfected cells; host or cells: HEK293T/17
T1 sequence (Q7RTX1 21-841 D147A): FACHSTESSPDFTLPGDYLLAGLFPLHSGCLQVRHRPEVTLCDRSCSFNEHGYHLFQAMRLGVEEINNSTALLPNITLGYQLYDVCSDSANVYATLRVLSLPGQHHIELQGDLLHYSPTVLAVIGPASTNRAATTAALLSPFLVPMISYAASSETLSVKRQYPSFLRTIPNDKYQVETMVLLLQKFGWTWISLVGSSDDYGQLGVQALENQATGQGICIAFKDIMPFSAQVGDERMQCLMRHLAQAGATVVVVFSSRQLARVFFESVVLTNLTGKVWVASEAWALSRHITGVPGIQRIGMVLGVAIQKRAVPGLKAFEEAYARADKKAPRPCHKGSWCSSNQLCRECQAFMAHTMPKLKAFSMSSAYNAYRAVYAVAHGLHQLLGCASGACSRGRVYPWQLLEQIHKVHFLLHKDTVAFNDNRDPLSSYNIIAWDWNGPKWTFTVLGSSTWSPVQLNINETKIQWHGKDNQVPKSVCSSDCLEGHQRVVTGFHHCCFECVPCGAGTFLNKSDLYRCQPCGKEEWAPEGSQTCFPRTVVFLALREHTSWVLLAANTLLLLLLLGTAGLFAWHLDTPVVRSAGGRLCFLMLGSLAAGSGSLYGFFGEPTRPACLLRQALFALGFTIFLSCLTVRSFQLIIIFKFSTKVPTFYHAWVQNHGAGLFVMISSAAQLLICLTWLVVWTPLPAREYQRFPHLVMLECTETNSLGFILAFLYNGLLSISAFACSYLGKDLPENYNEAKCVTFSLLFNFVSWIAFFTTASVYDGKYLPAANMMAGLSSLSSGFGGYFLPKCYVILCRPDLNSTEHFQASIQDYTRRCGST
T1 sequence (Q923K1 21-858): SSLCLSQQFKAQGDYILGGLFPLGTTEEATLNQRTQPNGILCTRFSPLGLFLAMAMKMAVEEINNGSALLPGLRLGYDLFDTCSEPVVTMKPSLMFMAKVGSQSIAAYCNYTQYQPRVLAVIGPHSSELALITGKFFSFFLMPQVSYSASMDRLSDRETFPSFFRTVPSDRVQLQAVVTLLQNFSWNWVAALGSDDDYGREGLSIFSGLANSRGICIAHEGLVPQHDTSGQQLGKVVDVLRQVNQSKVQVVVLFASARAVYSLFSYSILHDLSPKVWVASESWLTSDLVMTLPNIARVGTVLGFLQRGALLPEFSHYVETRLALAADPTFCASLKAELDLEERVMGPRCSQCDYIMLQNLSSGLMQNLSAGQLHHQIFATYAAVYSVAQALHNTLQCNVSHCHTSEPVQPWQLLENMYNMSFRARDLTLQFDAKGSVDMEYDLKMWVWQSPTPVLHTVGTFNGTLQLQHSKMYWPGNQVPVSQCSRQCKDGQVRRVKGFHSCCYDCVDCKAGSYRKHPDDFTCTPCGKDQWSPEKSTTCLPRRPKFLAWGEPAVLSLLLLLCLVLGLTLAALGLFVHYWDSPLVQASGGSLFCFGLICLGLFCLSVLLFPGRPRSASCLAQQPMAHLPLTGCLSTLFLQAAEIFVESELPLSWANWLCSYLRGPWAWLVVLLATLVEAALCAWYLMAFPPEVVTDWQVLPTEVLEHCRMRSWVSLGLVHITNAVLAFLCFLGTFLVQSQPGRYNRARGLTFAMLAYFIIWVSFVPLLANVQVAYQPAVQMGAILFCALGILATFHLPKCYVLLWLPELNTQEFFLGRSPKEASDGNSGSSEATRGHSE
Test: Calcium assay, hTAS1R1 mutant co-expressed with rTAS1R3
Format: cell-based, human, rat

SMILES: N[C@@H](CCC(=O)N[C@@H](CS)C(=O)NCC(=O)O)C(=O)O [GSH, γ-L-glutamyl-L-cysteinyl-glycine]
- EC50: > 30 mM
- effect of the added compound (1 mM) on the response to L-Glu (D147A): did not affect
- response to the agonist alone, vs WT (D147A): fully abolished

SMILES: CCCC(CCC)NC(=O)c1ccc2c(c1)OCO2 [S807, N-(heptan-4-yl)benzo[d][1,3]dioxole-5-carboxamide, reference compound]
- response to the agonist alone, vs WT (D147A): strongly affected
